Each compound was assayed against T1, Endothelial lipase (EL) (Homo sapiens, UniProt Q9Y5X9) (assay: Endothelial lipase (EL) enzymatic assay with fluorescent substrate A10070 in DMPG vesicles). Settings: conditioned media from HT-1080 cells overexpressing endogenous EL; 20 min preincubation at 37° C.; read-out: EL IC50.
T1 construct: HT-1080 cells, which were transformed by RAGE technology (Athersys) to overexpress endogenous EL; endogenous in cells; conditioned medium used as the enzyme source
T1 sequence (Q9Y5X9 21-500): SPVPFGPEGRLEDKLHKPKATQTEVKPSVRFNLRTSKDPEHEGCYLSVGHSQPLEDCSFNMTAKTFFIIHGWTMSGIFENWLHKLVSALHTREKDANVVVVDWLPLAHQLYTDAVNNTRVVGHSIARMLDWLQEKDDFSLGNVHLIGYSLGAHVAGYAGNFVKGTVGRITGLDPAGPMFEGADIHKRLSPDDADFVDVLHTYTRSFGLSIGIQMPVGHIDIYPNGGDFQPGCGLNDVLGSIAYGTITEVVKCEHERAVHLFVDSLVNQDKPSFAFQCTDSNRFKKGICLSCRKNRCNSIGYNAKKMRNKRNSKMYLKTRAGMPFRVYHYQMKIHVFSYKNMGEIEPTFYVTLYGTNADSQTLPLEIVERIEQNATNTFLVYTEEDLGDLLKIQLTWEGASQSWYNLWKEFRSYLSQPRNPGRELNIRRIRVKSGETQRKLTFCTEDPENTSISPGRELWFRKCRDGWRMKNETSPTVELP
Type: biochemical
Method in brief: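 EL activity was followed as a fluorescence rate (488/530 nm, reads every 20 s for 10 min, linear slope) on A10070 doped at 0.05 mole fraction into sonicated DMPG vesicles. Compound was first incubated 20 min at 37 °C, pH 8.0 HEPES/CaCl2 buffer, with conditioned media from EL-overexpressing HT-1080 cells.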

Question: O=C(N[C@H]1CC[C@@H](c2ccccc2)CC1)c1[nH]c(=O)[nH]c(=O)c1NCCN1CCOCC1 [Example 211, 5-(2-morpholinoethylamino)-2,6-dioxo-N-(cis-4-phenylcyclohexyl)-1,2,3,6-tetrahydropyrimidine-4-carboxamide] was tested. Which IC50 did it give?
Answer: 0.291 µM

Question: Which IC50 does the source give for Nc1c(C(=O)N[C@H]2CCc3ccc(-c4ccccc4)cc32)[nH]c(=O)[nH]c1=O [Example 139, (S)-5-amino-2,6-dioxo-N-(6-phenyl-2,3-dihydro-1H-inden-1-yl)-1,2,3,6-tetrahydropyrimidine-4-carboxamide] here?
Answer: 0.028 µM

Question: Nc1c(C(=O)N[C@H]2CC[C@@H](c3ccc(-c4ccnn4C4CCCCO4)cc3)C2)[nH]c(=O)[nH]c1=O (stereo partly drawn) [Example 176, 5-amino-2,6-dioxo-N-((1S,3R)-3-(4-(1-(tetrahydro-2H-pyran-2-yl)-1H-pyrazol-5-yl)phenyl)cyclopentyl)-1,2,3,6-tetrahydropyrimidine-4-carboxamide] was tested. Which IC50 did it give?
Answer: 1.09 µM

Question: Which IC50 does the source give for Nc1c(C(=O)N[C@@H]2CCc3ccc(-c4ccccc4)cc32)[nH]c(=O)[nH]c1=O [Example 138, (R)-5-amino-2,6-dioxo-N-(6-phenyl-2,3-dihydro-1H-inden-1-yl)-1,2,3,6-tetrahydropyrimidine-4-carboxamide] here?
Answer: 1.72 µM

Question: With Nc1c(C(=O)NC2CCN(c3ncnc4[nH]ncc34)C2)[nH]c(=O)[nH]c1=O (stereo not shown) [Example 189, N-(1-(1H-pyrazolo[3,4-d]pyrimidin-4-yl)pyrrolidin-3-yl)-5-amino-2,6-dioxo-1,2,3,6-tetrahydropyrimidine-4-carboxamide] as the compound, how does the IC50 read?
Answer: 0.641 µM

Same assay, conditions: range observed in the EL assay; read-out: EL IC50 values

Question: For Nc1c(C(=O)N[C@H]2CCc3ccc(Br)cc32)[nH]c(=O)[nH]c1=O [Example 55, (S)-5-amino-N-(6-bromo-2,3-dihydro-1H-inden-1-yl)-2,6-dioxo-1,2,3,6-tetrahydropyrimidine-4-carboxamide], which IC50 is on record?
Answer: ≤ 10 µM

Question: With O=C(N[C@H]1CC[C@@H](c2ccccc2)CC1)c1[nH]c(=O)[nH]c(=O)c1NCCN1CCOCC1 [Example 211, 5-(2-morpholinoethylamino)-2,6-dioxo-N-(cis-4-phenylcyclohexyl)-1,2,3,6-tetrahydropyrimidine-4-carboxamide] as the compound, how does the IC50 read?
Answer: ≤ 10 µM

Question: Which IC50 does the source give for Nc1c(C(=O)N[C@H]2CCc3ccc(-c4ccccc4)cc32)[nH]c(=O)[nH]c1=O [Example 139, (S)-5-amino-2,6-dioxo-N-(6-phenyl-2,3-dihydro-1H-inden-1-yl)-1,2,3,6-tetrahydropyrimidine-4-carboxamide] here?
Answer: ≤ 10 µM

Question: How did the IC50 turn out when O=C(Cc1ccccc1)N[C@H]1CC[C@@H](NC(=O)c2[nH]c(=O)[nH]c(=O)c2O)CC1 [Example 279, 5-hydroxy-2,6-dioxo-N-(cis-4-(2-phenylacetamido)cyclohexyl)-1,2,3,6-tetrahydropyrimidine-4-carboxamide] was run?
Answer: ≤ 10 µM

Question: O=C(N[C@H]1CC[C@@H](c2ccccc2)CC1)c1[nH]c(=O)[nH]c(=O)c1O [Example 238, Hydroxy-2,6-dioxo-N-(cis-4-phenylcyclohexyl)-1,2,3,6-tetrahydropyrimidine-4-carboxamide] was tested. Which IC50 did it give?
Answer: ≤ 10 µM

Question: How did the IC50 turn out when Nc1c(C(=O)NC2CCCC(c3ccccc3)C2)[nH]c(=O)[nH]c1=O (single isomer, unassigned) [Example 100, 5-amino-2,6-dioxo-N-(3-phenylcyclohexyl)-1,2,3,6-tetrahydropyrimidine-4-carboxamide] was run?
Answer: ≤ 10 µM

Question: For COc1cccc2c1C(NC(=O)c1[nH]c(=O)[nH]c(=O)c1N)CCC2 (single isomer, unassigned; enantiomer a) [Example 201, 5-amino-N-(8-methoxy-1,2,3,4-tetrahydronaphthalen-1-yl)-2,6-dioxo 1,2,3,6-tetrahydropyrimidine-4-carboxamide (Enantiomer A)], which IC50 is on record?
Answer: ≤ 10 µM

Question: With O=C(N[C@@H]1CCCc2c(NCc3ccccc3)cccc21)c1[nH]c(=O)[nH]c(=O)c1O [Example 286, (R)-N-(5-(benzylamino)-1,2,3,4-tetrahydronaphthalen-1-yl)-5-hydroxy-2,6-dioxo-1,2,3,6-tetrahydropyrimidine-4-carboxamide] as the compound, how does the IC50 read?
Answer: ≤ 10 µM

Question: Nc1c(C(=O)N[C@@H]2CCC[C@H]2OCc2ccccc2)[nH]c(=O)[nH]c1=O [Example 63, 5-amino-N-((1R,2R)-2-(benzyloxy)cyclopentyl)-2,6-dioxo-1,2,3,6-tetrahydropyrimidine-4-carboxamide] was tested. Which IC50 did it give?
Answer: ≤ 10 µM

Question: How did the IC50 turn out when O=C(NC1CCCc2c(NS(=O)(=O)c3ccccc3)cccc21)c1[nH]c(=O)[nH]c(=O)c1O (stereo not shown) [Example 287, 5-hydroxy-2,6-dioxo-N-(5-(phenylsulfonamido)-1,2,3,4-tetrahydronaphthalen-1-yl)-1,2,3,6-tetrahydropyrimidine-4-carboxamide] was run?
Answer: ≤ 10 µM

Question: Nc1c(C(=O)NC2CCCN(c3ncccc3Cl)C2)[nH]c(=O)[nH]c1=O (stereo not shown) [Example 183, 5-amino-N-(1-(3-chloropyridin-2-yl)piperidin-3-yl)-2,6-dioxo-1,2,3,6-tetrahydropyrimidine-4-carboxamide] was tested. Which IC50 did it give?
Answer: ≤ 10 µM

Question: CC(C)COc1ccc(C2CCC(NC(=O)c3[nH]c(=O)[nH]c(=O)c3N)C2)cc1 (stereo not shown) [Example 145, 5-amino-N-(3-(4-isobutoxyphenyl)cyclopentyl)-2,6-dioxo-1,2,3,6-tetrahydropyrimidine-4-carboxamide] was tested. Which IC50 did it give?
Answer: ≤ 10 µM

Question: Which IC50 does the source give for Nc1c(C(=O)N[C@H]2CC[C@@H](c3ccc(-c4ccnn4C4CCCCO4)cc3)C2)[nH]c(=O)[nH]c1=O (stereo partly drawn) [Example 176, 5-amino-2,6-dioxo-N-((1S,3R)-3-(4-(1-(tetrahydro-2H-pyran-2-yl)-1H-pyrazol-5-yl)phenyl)cyclopentyl)-1,2,3,6-tetrahydropyrimidine-4-carboxamide] here?
Answer: ≤ 10 µM

Question: For O=C(N[C@H]1CC[C@@H](c2ccccc2)CC1)c1[nH]c(=O)[nH]c(=O)c1NCc1ccccc1CO [Example 212, 5-(2-(hydroxymethyl)benzylamino)-2,6-dioxo-N-(cis-4-phenylcyclohexyl)-1,2,3,6-tetrahydropyrimidine-4-carboxamide], which IC50 is on record?
Answer: ≤ 10 µM

Question: With Nc1c(C(=O)NC2CCC(c3ccccc3)c3ccccc32)[nH]c(=O)[nH]c1=O (stereo not shown) [Example 6, 5-amino-2,6-dioxo-N-(4-phenyl-1,2,3,4-tetrahydronaphthalen-1-yl)-1,2,3,6-tetrahydropyrimidine-4-carboxamide] as the compound, how does the IC50 read?
Answer: ≤ 10 µM

Question: With Nc1c(C(=O)N[C@@H]2CCc3ccc(-c4ccccc4)cc32)[nH]c(=O)[nH]c1=O [Example 138, (R)-5-amino-2,6-dioxo-N-(6-phenyl-2,3-dihydro-1H-inden-1-yl)-1,2,3,6-tetrahydropyrimidine-4-carboxamide] as the compound, how does the IC50 read?
Answer: ≤ 10 µM

Question: O=C(NC1CCC(c2cccc(OCc3ccccc3)c2)C1)c1[nH]c(=O)[nH]c(=O)c1O (stereo not shown) [Example 282, N-(3-(3-(benzyloxy)phenyl)cyclopentyl)-5-hydroxy-2,6-dioxo-1,2,3,6-tetrahydropyrimidine-4-carboxamide] was tested. Which IC50 did it give?
Answer: ≤ 10 µM

Question: For O=C(N[C@@H]1CCCc2c(OCC3CCCC3)cccc21)c1[nH]c(=O)[nH]c(=O)c1O [Example 291, (R)-N-(5-(cyclopentylmethoxy)-1,2,3,4-tetrahydronaphthalen-1-yl)-5-hydroxy-2,6-dioxo-1,2,3,6-tetrahydropyrimidine-4-carboxamide], which IC50 is on record?
Answer: ≤ 10 µM

Question: Nc1c(C(=O)N[C@@H]2CC(c3ccccc3)c3ccccc32)[nH]c(=O)[nH]c1=O (stereo in doubt) [Example 29, 5-amino-2,6-dioxo-N-((1R,3S)-3-phenyl-2,3-dihydro-1H-inden-1-yl)-1,2,3,6-tetrahydropyrimidine-4-carboxamide] was tested. Which IC50 did it give?
Answer: ≤ 10 µM

Question: Which IC50 does the source give for CCOc1cccc(C(=O)N[C@H]2CC[C@@H](NC(=O)c3[nH]c(=O)[nH]c(=O)c3N)CC2)c1 [Example 121, 5-amino-N-(cis-4-(3-ethoxybenzamido)cyclohexyl)-2,6-dioxo-1,2,3,6-tetrahydropyrimidine-4-carboxamide] here?
Answer: ≤ 10 µM

Question: With Nc1c(C(=O)N[C@@H]2CCCc3ccccc32)[nH]c(=O)[nH]c1=O [Example 13, (R)-5-amino-2,6-dioxo-N-(1,2,3,4-tetrahydronaphthalen-1-yl)-1,2,3,6-tetrahydropyrimidine-4-carboxamide] as the compound, how does the IC50 read?
Answer: ≤ 10 µM

Question: How did the IC50 turn out when Nc1c(C(=O)N[C@H]2CC[C@@H](c3ccc(-c4ccc(CO)cc4)cc3)C2)[nH]c(=O)[nH]c1=O [Example 177, 5-amino-N-((1S,3R)-3-(4′-(hydroxymethyl)biphenyl-4-yl)cyclopentyl)-2,6-dioxo-1,2,3,6-tetrahydropyrimidine-4-carboxamide] was run?
Answer: ≤ 10 µM

Question: With O=C(N[C@H]1CC[C@H](c2ccccc2)C1)c1[nH]c(=O)[nH]c(=O)c1O [Example 275, 5-hydroxy-2,6-dioxo-N-((1S,3S)-3-phenylcyclopentyl)-1,2,3,6-tetrahydropyrimidine-4-carboxamide] as the compound, how does the IC50 read?
Answer: ≤ 10 µM

Question: With Cc1cc(Cl)nc(N2CCCC(NC(=O)c3[nH]c(=O)[nH]c(=O)c3N)C2)n1 (stereo not shown) [Example 185, 5-amino-N-(1-(4-chloro-6-methylpyrimidin-2-yl)piperidin-3-yl)-2,6-dioxo-1,2,3,6-tetrahydropyrimidine-4-carboxamide] as the compound, how does the IC50 read?
Answer: ≤ 10 µM

Question: How did the IC50 turn out when Nc1c(C(=O)NC2CCN(c3ncnc4[nH]ncc34)C2)[nH]c(=O)[nH]c1=O (stereo not shown) [Example 189, N-(1-(1H-pyrazolo[3,4-d]pyrimidin-4-yl)pyrrolidin-3-yl)-5-amino-2,6-dioxo-1,2,3,6-tetrahydropyrimidine-4-carboxamide] was run?
Answer: ≤ 10 µM

Question: Which IC50 does the source give for O=C(N[C@H]1CC[C@@H](c2ccccc2)C1)c1[nH]c(=O)[nH]c(=O)c1O [Example 273, 5-hydroxy-2,6-dioxo-N-((1S,3R)-3-phenylcyclopentyl)-1,2,3,6-tetrahydropyrimidine-4-carboxamide] here?
Answer: ≤ 10 µM

Question: With Nc1c(C(=O)N[C@@H]2CCCc3ccc(F)cc32)[nH]c(=O)[nH]c1=O [Example 40, (R)-5-amino-N-(7-fluoro-1,2,3,4-tetrahydronaphthalen-1-yl)-2,6-dioxo-1,2,3,6-tetrahydropyrimidine-4-carboxamide] as the compound, how does the IC50 read?
Answer: ≤ 10 µM

Question: How did the IC50 turn out when Nc1c(C(=O)NC2CCC(c3nc4ccc(-c5ccccc5)cc4s3)C2)[nH]c(=O)[nH]c1=O (stereo not shown) [Example 144, 5-amino-2,6-dioxo-N-(3-(6-phenylbenzo[d]thiazol-2-yl)cyclopentyl)-1,2,3,6-tetrahydropyrimidine-4-carboxamide] was run?
Answer: ≤ 10 µM

Question: With O=C(N[C@H]1CC[C@@H](c2ccccc2)CC1)c1[nH]c(=O)[nH]c(=O)c1NCCCN1CCOCC1 [Example 219, 5-(3-morpholinopropylamino)-2,6-dioxo-N-(cis-4-phenylcyclohexyl)-1,2,3,6-tetrahydropyrimidine-4-carboxamide] as the compound, how does the IC50 read?
Answer: ≤ 10 µM

— patent US9199946B2, “Pyrimidinone carboxamide inhibitors of endothelial lipase” (BRISTOL-MYERS SQUIBB COMPANY, priority 2012, dated 2015)
